Assay results from US20250100962A1 (CITY OF HOPE, priority 2023, published 2025).

How the values were obtained:
U2OS cells = experiment: Clock gene and protein expression in U2OS cells (immunoblot, RT-qPCR); type: cell-based; details: 24 h
Method: Total protein (20-30 μg) was extracted using standard IP Lysis buffer (3% NaCl, 5% Tris-HCl, 10% Glycerol, 0.5% Triton X-10 in Sterile MilliQ water) and resolved on 10% SDS-Page gels followed by western blotting on Immun-Blot PVDF Membranes for Protein Blotting (Bio-rad). Antibodies used were diluted in 5% milk (Labscientific CN: M0841). Membranes were washed with TBS-T [10% TBS, 0.1% Tween™ 20 (Fisher BioReagents CN: BP377-500)]. Images were developed using Luminol solution 1:1 SuperSignal West Pico PLUS Stable Peroxide Solution (Thermo Scientific CN: 1863095) and SuperSignal West Pico PLUS Luminol Enhancer Solution (Thermo Scientific CN: 1863094) on chemiluminescence imager (GE Healthcare Bio-Sciences AB Amersham Imager 680).
Cells extracted with TRIzol™ Reagent (Ambion CN: 15596018) were collected. RNA extraction was performed with Chloroform (Fisher Chemical CN: C298-500) and Isopropanol (Fisher Chemical CN: A451SK-4) extraction followed by two purification steps with 75% Ethanol (Fisherbrand CN: HC-800-1GAL) and elution in Sterile MilliQ water.
The RNA concentration was measured using Nanodrop spectrophotometer (Thermo Fisher). Following RNA extraction, retro transcription was performed using RevertAid RT Reverse Transcription Kit (Thermo Fisher CN: K1691) and run on SimpliAmp Thermal Cycler (Thermo Fisher CN: A24811) according to the kit procedure. Quantitative PCR was performed using PowerUp™ SYBR™ Green Master Mix (Thermo Fisher CN: A25742) using a dilution of 5:2:1 master mix, RNA and H2Omq according to the protocol on ViiA 7 Real-Time PCR System (Applied Biosystems). Relative expression levels were determined using the comparative Ct method to normalize target genes to 36B4 internal controls.

mdx primary myoblasts = experiment: EdU proliferation in mdx primary myoblasts; type: cell-based, mouse; details: 0.5-1 μM; 6 hours
From the text: FIGS. 16A-16B. Pro-myogenic effect of chlorhexidine on dystrophin-deficient mdx primary myoblasts. FIG. 16A: We used primary myoblasts isolated from male mdx mice as a cellular model to test the effect of CHX on myogenesis. […] Both of the pro-myogenic and proliferative effects of CHX observed in mdx primary myoblasts were consistent with prior findings from C2C12 myoblasts. Additional validations of these effects are on-going using myoblasts derived from human DMD patients.

3T3-L1 preadipocytes = experiment: Adipogenic differentiation of 3T3-L1 preadipocytes; type: cell-based
Method: Cell culture and adipogenic differentiation. 3T3-L1 and C3H10T1/2 cell lines were obtained from ATCC, and maintained in DMEM with 10% fetal bovine serum supplemented with 1% Penicillin-Streptomycin-Glutamine, as previously described (Nam, Guo, Chatterjee et al., 2015; Liu, Xiong, Nam et al., 2020). 0.25% Trypsin was used for digestion and passaging of these cell lines. For adipogenic differentiation induction media (1.6 μM insulin, 1 μM dexamethasone, 0.5 mM IBMX, 0.5 uM Rosiglitazone) was used for 3 days followed by maintenance medium with insulin for 3 days for 3T3-L1 and 5 days for C3H10T1/2 cells, as previously described (Liu et al., 2020). Oil-red-O and Bodipy staining. These stainings for neutral lipids during adipogenic differentiation were performed as previously described (Nam et al., 2015). Briefly, for oil-red-O staining, cells were fixed using 10% formalin and incubated using 0.5% oil-red-O solution for 1 hour. Bodipy 493/503 was used at 1 mg/L together with DAPI for 15 minutes, following 4% paraformaldehyde fixation and permeabilization with 0.2% triton-X100. Immunoblot analysis. Total protein was extracted using lysis buffer containing 3% NaCl, 5% Tris-HCl, 10% Glycerol, 0.5% Triton X-10 in MilliQ water with protease inhibitor cocktail. 20-40 μg of total protein was resolved on 10% SDS-PAGE gels followed by immunoblotting on PVDF membranes (Bio-rad). […]

[1] = tested on: primary myoblasts derived from patients with Duchene Muscular Dystrophy; experiment: Myogenic induction in human DMD primary myoblasts (immunoblot); type: cell-based; details: 3 days of differentiation
From the text: FIGS. 40A-40B. Chlorhexidine and CM002 promote myogenic induction in human DMD primary myoblasts. Using primary myoblasts derived from patients with Duchene Muscular Dystrophy, we determined the effect of Chlorhexidine and CM002 on promoting myogenic induction.

[2] = In vivo pharmacokinetics after intravenous tail vein injection; design: species or system mouse; details: 1 mg/kg intravenous
Method: FIGS. 47A-47C. In vivo PK study of CM002 by intravenous administration in C57/BL6 mice. We next performed pharmacokinetic analysis of CM002 in normal wild-type C57/BL6 mice to guide in vivo studies. Following intravenous delivery of CM002 via tail vein injection at 1 mg/kg of body weight in three mice of 12 weeks of age, we monitored its plasma concentrations at 6 hours (FIG. 47A) and 24 hours (FIG. 47B). […] Quantitative analysis of key pharmacokinetic parameters is shown in FIG. 47C, based on 1 mg/kg/day intravenous administration.

mdx mice [3] = experiment: Maximal lethal dose by daily intraperitoneal injection in mdx mice; type: in vivo
Method: (§1) FIGS. 48A-48C. Systemic delivery of CM002 by intraperitoneal injection improves muscle strength in dystrophic mdx mice. Based on the PK analysis, we determined the maximal lethal dose in mdx mice via daily intraperitoneal injections using escalating doses. Starting doses were tested at 10, 20 and 30 mg/Kg/day, for 3 consecutive days in male or female mdx mice (FIG. 48A).

mdx mice [4] = type: in vivo; details: 10 mg/kg IP daily, 3 doses; vs non-treated or DMSO
Method: as §1

C57/BL6 mice = experiment: Metabolic cage monitoring of C57/BL6 mice after intraperitoneal injection; type: in vivo, mouse; details: 5 mg/Kg IP daily
Method: To examine potential effects of CM002 on central clock located in suprachiasmatic nuclei that controls food intake, activity and sleep rhythms, we administered CM002 (5 mg/Kg) together with DMSO as vehicle control using daily IP injections in normal C57/BL6 mice. Mice received daily injections for 3 doses and their food and water intake, activity level and energy expenditure were monitored using metabolic cages for 3 days.

cells = experiment: Cellular toxicity observed across cell assays; type: cell-based

[H]/N=C(\N/C(=N/[H])NCCCCCCNC(=N)NC(=N)Nc1ccc(Cl)cc1)Nc1ccc(Cl)cc1 [CHX, chlorhexidine]
CLOCK and Bmal1 transcripts (U2OS cells; RT-qPCR): markedly up-regulated | Dbp, Nr1d1, Nr1d2 and Cry2 transcripts (U2OS cells; RT-qPCR): stimulated | Bmal1 protein expression (U2OS cells; immunoblot): elevated Bmal1 expression at 0.2 and 0.5 μM | CLOCK protein levels (U2OS cells; immunoblot): sufficient to induce CLOCK protein levels | Rev-erbα (Nr1d1) and Period 2 (Per 2) protein (U2OS cells; immunoblot): induced by CHX in a largely dose-dependent manner | increase of rate of proliferation (EdU) (mdx primary myoblasts): ~22% | formation of lipid-laden mature adipocyte (3T3-L1 preadipocytes; day 6, oil-red-O, Bodipy): sufficient to inhibit the formation of lipid-laden mature adipocyte in a dose-dependent manner | C/EBPα and PPARγ levels (3T3-L1 preadipocytes; differentiation day 6): only moderate tendency of lowering of C/EBPα and PPARγ levels

CCCCCC/C=N/C(=N)NC(=N)Nc1ccc(Cl)cc1 [CM002]
MyoD and Myogenin protein (myogenic factors) [1]: Robust inductions of MyoD and Myogenin protein | Bmal1 protein expression ([1]; 0.2 and 0.5 μM): significantly elevated protein expression of Bmal1 | plasma level at half-life [2]: ~100 ng/mL | time of tissue re-distribution [2]: ≤ 30 min | time to being largely cleared [2]: ≤ 24 h | maximal plasma concentration ([2]; C57/BL6 mice): ~1.47 mg/L | half-life ([2]; mouse, plasma, C57/BL6 mice): 6.76 ± 1.33 h | lethality at 20 mg/kg (mdx mice [3]; IP injection): young adult mice at 14 weeks of age were succumbed to death, while older mice over 6 months of age survived | lethality at 30 mg/kg (mdx mice [3]; IP injection): most mice injected at 30 mg/kg deceased | lethal dose (mdx mice [3]; intraperitoneal, 3 consecutive days): over 20 mg/kg/day | tolerability at 10 mg/kg (mdx mice [3]; male mice of 10-14 weeks, IP): tolerated 10 mg/kg well without any lethality | increase of grip strength (mdx mice [4]): ~16% | daily ambulatory activity levels (C57/BL6 mice): tendency toward reduction although not significantly altered | water consumption (C57/BL6 mice): remains comparable between groups | accumulative food consumption, relative to normal food intake level (C57/BL6 mice; 3 doses, after 3 days): ~25% | energy expenditure (C57/BL6 mice; calculated from oxygen consumption): persistently elevated | viability of cells at 1 μM (cells): maintained
